Assay: Optical fiber-coupled TRAST curves of IR700 in tissue and PBS buffer solution, with and without ascorbic acid
Type: physicochemical
Conditions: IR700 in tissue or PBS buffer solution, FIG. 6B
Description: FIG. 6A illustrates the presently disclosed embodiment of a system for PDT (611), wherein the system is arranged such that the same excitation-light-delivering fiber(s) also are arranged as detection fiber(s). The system may thus be arranged to carry out a method for PDT as disclosed elsewhere herein.
The system (611) typically comprises an intensity-modulated excitation light (605), e.g. from a laser (601) and an AOM (602). The excitation light (605) is applied, e.g. lensed by an objective (603), via a gradient-index multimode optical fiber (604), into a sample (609, tissue or water solution). […] The fluorescence plotted in the TRAST curves (612), corresponds to the (average) fluorescence from the PS compounds generated by the (modulated) excitation at the fiber end, which was collected (606) by the same fiber (604), passed through the fiber, through a dichroic mirror (607), and was then detected in a region-of-interest (ROI) within the field of detection of a camera (608). While only one fiber is shown in FIG. 6A, the system may comprise multiple fibers, into which excitation light from one or several lasers is introduced, and via which fluorescence detected from their fiber-ends is fed to different ROIs detected on the camera pixel array, and/or to a set of point detectors. […]

Row | Compound | time range of the faster major relaxation in the TRAST curves, attributed to T1 build-up | time range of the prominent relaxation in the TRAST curves, attributed to build-up of a photo-reduced radical state population in IR700 (after addition of ascorbic acid)
1 | C[Si](C)(CCC[N+](CCCS(=O)(=O)[O-])(CCCS(=O)(=O)[O-])CCCS(=O)(=O)[O-])O[Si]1(O[Si](C)(C)CCC[N+](CCCS(=O)(=O)[O-])(CCCS(=O)(=O)[O-])CCCS(=O)(=O)[O-])n2c3c4ccccc4c2N=C2N=C(N=c4c5ccccc5c(n41)=NC1=NC(=N3)c3ccccc31)c1cccc(OCCCOC(=O)NCCCCCC(=O)ON3C(=O)CCC3=O)c12.[Na+].[Na+].[Na+].[Na+] (centres unmarked) [IR700, IRdye700DX] | microsecond time range | 
2 | O=C1O[C@H]([C@@H](O)CO)C(O)=C1O [ascorbic acid] |  | ~0.1 ms
